Experimental data reported in patent US11406714B2, “Telodendrimers and nanocarriers and methods of using same” (The Research Foundation for the State University of New York, priority 2013, dated 2022).
“Also recorded” adds a separate entry of the source.

Assays:
[1] = Maximum tolerated dose (MTD) study; format: in vivo
Procedure: FIG. 24. An example of body weight lost for an animal treated with DOX loaded PEG^5kCA4-L-Rh4 at different dosage level, as well as the empty micelles for the test of the MTD studies. Among, the 15 mg/Kg dosage was repeated at day 0 and day 4 to study the MTD of multiple dosages.

Raji lymphoma xenograft [2] = assay: In vivo cancer treatment; design: species or system nude mice; details: 10 mg/kg, days 0, 4 and 8, intravenous
Procedure: (§1) Female athymic nude mice (Nu/Nu strain), 6-8 weeks age, were purchased from Harlan. All animals were kept under pathogen-free conditions according to AAALAC (Association for Assessment and Accreditation of Laboratory Animal Care) guidelines and were allowed to acclimatize for at least 4 days prior to any experiments. All animal experiments were performed in compliance with institutional guidelines and according to protocol approved by the Committee for the Humane Use of Animals of State University of New York Upstate Medical University. Subcutaneous tumor xenograft mouse models were established by injecting 1×10^7 HT-29 or raji cancer cells in a 100 μL of mixture of PBS and Matrigel (1:1 v/v) subcutaneously at the right flank in female nude mice.
Subcutaneous Raji lymphoma xenograft mouse model was used to evaluate the therapeutic efficacy of different formulations of DOX. […] Tumor sizes were measured with a digital caliper twice per week. Tumor volume was calculated by the formula (L×W^2)/2, where L is the longest, and W is the shortest in tumor diameters (mm). To compare between groups, relative tumor volume (RTV) was calculated at each measurement time point (where RTV equals the tumor volume at given time point divided by the tumor volume prior to initial treatment). […]

[3] = tested on: HT-29 colon cancer xenografts; assay: In vivo and ex vivo NIRF imaging and biodistribution; design: species or system nude mice
Procedure: as §1
(§2) Nude mice with subcutaneous tumors of an approximate 8 to 10 mm in diameter were subjected to in vivo NIRF optical imaging. At different time points post-injection of DiD and chemodrug (PTX or DOX or GA) co-loaded micelles (the mass ratio of DiD and PTX within nanocarrier was […]), mice were scanned using a IVIS-200 small animal imager at cy5.5 excitation and emission channels. The mice were anaesthetized by isofluorane gas before and during each imaging. After in vivo imaging, animals were euthanized by CO2 overdose after the last in vivo imaging. Tumors and major organs were excised and imaged with the IVIS-200 small animal imager.

Raji lymphoma xenograft [4] = assay: as above; design: species or system nude mice; details: tail vein injection
Procedure: as §1, §2

| SMILES | MTD of free DOX [1] [mg/kg] | Tumor response (Raji lymphoma xenograft [2]) | Ex vivo biodistribution of fluorescence signal ([3]; after last in vivo imaging) | In vivo tumor targeting (fluorescence imaging) ([3]; tail vein injection, DiD signal) | Biodistribution of fluorescence signal (Raji lymphoma xenograft [4]) |
| --- | --- | --- | --- | --- | --- |
| COc1cccc2c1C(=O)c1c(O)c3c(c(O)c1C2=O)C[C@@](O)(C(=O)CO)C[C@@H]3O[C@H]1C[C@H](N)[C@H](O)[C@H](C)O1 [DOX, Doxorubicin] | 10 | the cancer progression was slowed down | – | – | – |
| CCCCCCCCCCCCCCCCCCN1C(=CC=CC=CC2=[N+](CCCCCCCCCCCCCCCCCC)c3ccccc3C2(C)C)C(C)(C)c2ccccc21.[O-][Cl+3]([O-])([O-])[O-] [DiD, 1,1′-dioctadecyl-3,3,3′,3′-tetramethylindodicarbocyanine perchlorate] | – | – | high uptake in liver, lung and spleen and low uptake in tumor; also recorded: high uptake of fluorescent signal in spleen and lung | nonspecific binding and low tumor uptake | high fluorescent uptake in the liver, lung and spleen and weak signal in the tumor |
